Data published in US10633338B2, “Binding Function 3 (BF3) site compounds as therapeutics and methods for their use” (THE UNIVERSITY OF BRITISH COLUMBIA, priority 2014, dated 2020).

Molecular target: T1, androgen receptor (AR) (Homo sapiens, UniProt P10275, T878A)
T1 construct: stably transfected eGFP-expressing LNCaP human prostate cancer cells (LN-ARR2PB-eGFP) containing an androgen responsive probasin-derived promoter; endogenous in cells; host or cells: LNCaP (LN-ARR2PB-eGFP)
T1 sequence (P10275 1-920 T878A): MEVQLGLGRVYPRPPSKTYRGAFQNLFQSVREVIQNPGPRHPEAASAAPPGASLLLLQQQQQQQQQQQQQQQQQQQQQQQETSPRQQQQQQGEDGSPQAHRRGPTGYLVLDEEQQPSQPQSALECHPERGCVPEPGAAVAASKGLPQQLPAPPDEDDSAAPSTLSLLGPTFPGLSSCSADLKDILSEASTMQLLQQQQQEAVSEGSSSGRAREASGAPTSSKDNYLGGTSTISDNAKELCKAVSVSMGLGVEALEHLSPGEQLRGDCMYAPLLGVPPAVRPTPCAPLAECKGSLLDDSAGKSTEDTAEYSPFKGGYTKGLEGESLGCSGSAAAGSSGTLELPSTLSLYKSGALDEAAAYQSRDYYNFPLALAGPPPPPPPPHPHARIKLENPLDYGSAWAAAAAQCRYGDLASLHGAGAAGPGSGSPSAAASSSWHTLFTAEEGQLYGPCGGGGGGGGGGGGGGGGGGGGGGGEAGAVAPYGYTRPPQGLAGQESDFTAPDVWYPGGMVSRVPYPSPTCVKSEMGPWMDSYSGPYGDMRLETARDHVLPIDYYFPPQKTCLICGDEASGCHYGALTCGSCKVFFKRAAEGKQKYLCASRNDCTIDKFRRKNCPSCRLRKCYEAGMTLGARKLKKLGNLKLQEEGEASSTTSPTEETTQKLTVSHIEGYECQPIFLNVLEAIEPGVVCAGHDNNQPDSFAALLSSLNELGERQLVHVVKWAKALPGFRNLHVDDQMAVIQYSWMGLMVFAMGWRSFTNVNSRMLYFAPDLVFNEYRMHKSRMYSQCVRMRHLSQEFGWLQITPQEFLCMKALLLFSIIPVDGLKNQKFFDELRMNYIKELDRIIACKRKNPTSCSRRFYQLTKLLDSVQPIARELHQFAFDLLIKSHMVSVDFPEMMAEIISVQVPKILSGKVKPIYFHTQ
Test: eGFP cellular AR transcription assay
Format: cell-based
Conditions: LN-ARR2PB-eGFP LNCaP cells, 0.1 nM R1881, 3 days, 0-100 μM compound; read-out: IC50 (eGFP); call rule not given here
Method: After 5 days, the cells were plated into a 96-well plate (35,000 cells/well) with 0.1 nM of the synthetic androgen R1881 and increasing concentrations (0-100 μM) of compound.
After 5 days, the cells were plated into a 96-well plate (35,000 cells/well) with 0.1 nM R1881 and increasing concentrations (0-100 μM) of compound.
In this assay, the expression of eGFP is under the control of an androgen responsive probasin-derived promoter and can quantify AR transcriptional activity.

IC50 [µM]	Structure (SMILES)
10.7	CC1(C)c2ccccc2NC1c1c[nH]c2cnccc12 (stereo not drawn) [13 561]
1.6	Fc1cccc2c(-c3ccc4ccccc4n3)c[nH]c12 [13 569]
5.6	Cc1cc(-c2c[nH]c3ccccc23)nc2ccccc12 [13 547]
11.8	c1ccc(COc2ccc3c(C4Nc5ccccc5C45CCCCC5)c[nH]c3c2)cc1 (stereo not drawn) [13 550]
15.5	Oc1ccc2c(C3Nc4ccccc4C34CCCCC4)c[nH]c2c1 (stereo not drawn) [13 551]
0.7	c1ccc2nc(-n3ncc4ccccc43)ccc2c1 [13 572]
5.3	c1ccc(COc2ccc3c(-c4ccc5ccccc5n4)c[nH]c3c2)cc1 [13 589]
1.1	Cn1cc(-c2ccc3ccccc3n2)c2ccccc21 [13 571]
7.7	CC1(C)c2ccccc2NC1c1c[nH]c2ccc(N)cc12 (stereo not drawn) [13 538]

Same assay, conditions: LN-ARR2PBeGFP LNCaP cells, 0.1 nM R1881, 3 days incubation

Structure (SMILES)	eGFP IC50
CC1(C)c2ccccc2NC1c1c[nH]c2c(F)cccc12 (stereo not drawn) [Compound 13555]	Inactive
CC1(C)c2ccccc2NC1c1c[nH]c2c(C(=O)O)cccc12 (stereo not drawn) [Compound 13557]	Inactive

Same assay, conditions: LN-ARR2PBeGFP LNCaP cells, 0.1 nM R1881, 3 days incubation; read-out: eGFP IC50

IC50 [µM]	Structure (SMILES)
10	O=C(Nc1nc2cc(Br)ccc2s1)c1cc(Br)ccc1O [Compound 9028]
0.013	N#Cc1cccc2c(-c3ccc4ccc(F)cc4n3)c[nH]c12 [Compound 13786]
4.5	FC(F)(F)c1cccc(/N=C/c2c[nH]c3ccccc23)c1 [Compound 13303]
3.7	CNC(=O)c1cccc2nc(-c3c[nH]c4c(N5CCOCC5)c(F)c(F)cc34)ccc12 [Compound 13775]
2.5	Brc1ccc2cc(CCc3cc4ccc(Br)cc4[nH]3)[nH]c2c1 [Compound 9043]
3.9	S=C(c1c[nH]c2ccccc12)N1CCOCC1 [Compound 13243]
0.037	CNC(=O)c1cccc2nc(-c3c[nH]c4c(F)cccc34)ccc12 [Compound 13713]
10	N#Cc1cn(CCCOc2ccccc2Cl)c2ccccc12 [Compound 13232]
9.72	Brc1ccc2nc(-c3c[nH]c4ccccc34)cn2c1 [Compound 13050]
11.7	O=C(Nc1n[nH]c2ccc(Br)cc12)c1cc(Br)ccc1O [Compound 9026]
0.404	Fc1cc2[nH]cc(-c3ccc4cccc(F)c4n3)c2cc1F [Compound 13651]
2.5	Cn1cc(CCc2ccncc2)c2ccccc21 [Compound 13202]
2.57	Cc1ccc2c(-c3ccc4ccccc4n3)c[nH]c2c1 [Compound 13574]
0.7	c1ccc2c(c1)CCN2c1nc2ccccc2o1 [Compound 13220]
10.7	CC1(C)c2ccccc2NC1c1c[nH]c2cnccc12 (stereo not drawn) [Compound 13561]
39.1	O=C(Nc1nc2ccc(Br)cc2s1)c1ccc(Br)cc1O [Compound 9040]
5.3	c1ccc(COc2ccc3c(-c4ccc5ccccc5n4)c[nH]c3c2)cc1 [Compound 13589]
0.11	Cc1cccc2c(-c3ccc4c(-c5cncs5)cccc4n3)c[nH]c12 [Compound 13782]
6	CC1(C)c2cc(Br)ccc2NC1c1c[nH]c2ccc(Br)cc12 (stereo not drawn) [Compound 13512]
1.63	Cc1ccc(F)c2c(-c3ccc4ccccc4n3)c[nH]c12 [Compound 13650]
> 200	O=C(Nc1nc2ccc(Br)cc2s1)c1ccccc1O [Compound 9039]
2.1	C[C@@H]1Cc2ccccc2N1c1nc2ccccc2o1 [Compound 13261]
11.4	CC1(C)c2ccccc2NC1c1c[nH]c2cc(OCc3ccccc3)ccc12 (stereo not drawn) [Compound 13544]
4.7	C(=C(c1ccccc1)c1ccccc1)c1c[nH]c2ccccc12 [Compound 13250]
0.19	Cc1c(F)ccc2c(-c3ccc4cccc(Br)c4n3)c[nH]c12 [Compound 13787]
5	Clc1ccc(Nc2nc3ccccc3[nH]2)cc1Cl [Compound 13186]
7.7	CC1(C)c2ccccc2NC1c1c[nH]c2ccc(N)cc12 (stereo not drawn) [Compound 13538]

Same assay, conditions: eGFP IC50, LN-ARR2PBeGFP LNCaP cells, 0.1 nM R1881, 3 days incubation

Structure (SMILES)	IC50 [µM]
Oc1ccc(Cn2c(-c3ccc(O)cc3)nc3ccccc32)cc1 [Compound 13029]	3.22
